Laboratory results: US20260242390A1, “TOTAL SYNTHESES OF PORTIMINE A AND ANALOGUES THEREOF AS SMALL MOLECULE MODULATORS OF NMD3” (priority 2023, published 2026)

System: Jurkat cells
Test: Immunoblot of caspase 3 in Jurkat cells
Format: cell-based, human
Settings: for cell apoptosis / Caspase 3 activation: Jurkat 5M per well, 2 nM-1000 nM, 12 hours; for cell apoptosis, immunoblot of caspase 3: Jurkat cells, 12 hours at 10 nM; for caspase-3 cleavage in Jurkat cells: dose-dependent, immunoblot
Source text: FIG. 1. Portimine A is non-toxic to primary human PBMCs. Portimine A and its functional analogs show stereo-selective acute toxicity in cancer cells. […] (B) Structure of portimine related analogs: phenyl-portimine A (Ph-PA, 36) and epi-portimine A (ePA, 38). Structure of fully functionalized portimine A-based epimeric probe pair: portimine A-diazirine-alkyne (PA-DA, 35-2) and epi-portimine A-diazirine-alkyne (ePA-DA, 35-1). (C) Cell viability analysis of portimine A and analogs. Jurkat cells were treated with increasing concentrations of portimine A and analogs for 24 hours. All presented data as mean of biological replicated experiments (n=3). […] Jurkat cells were treated with portimine A or analogs for 12 hours at 10 nM.
FIG. 3. Initial SAR studies: Assessing activity of PAL functionalized PTMA analogs. […] (A) PA and Ph-PA show less toxic to healthy PBMCs compared to Jurkat cells. […] (B) Immunoblot of caspase-3 in Jurkat and PBMCs with indicated conditions.
FIG. 5. […] (I, J) Confirmation of PA-DA engagement of NMD3 in Jurkat and HCC1806 cells. […] Treatment condition: Jurkat (5M per well). Portimine A concentration: 2 nM-1000 nM; In total treat cell for 12 hours.
• 1) Portimine A and its functional analogs show stereo-selective acute toxicity in cancer cells (FIG. 1). […] (B) Structure of portimine related analogs: phenyl-portimine A (Ph-PA, 36) and epi-portimine A (ePA, 38). Structure of fully functionalized portimine A-based epimeric probe pair: portimine A-diazirine-alkyne (PA-DA, 35-2) and epi-portimine A-diazirine-alkyne (ePA-DA, 35-1). (C) Cell viability analysis of portimine A and analogs. Jurkat cells were treated with increasing concentrations of portimine A and analogs for 24 hours. All presented data as mean of biological replicated experiments (n=3). […] Jurkat cells were treated with portimine A or analogs for 12 hours at 10 nM. […] Structurally related negative control ePA and PB are non-toxic in all cell types in the current concentrate range. PBMCs (25k per well), Jurkat (10k per well). […] Cell cycle analysis in Jurkat cells (FIG. 2). Jurkat cells were treated with 10 nM of indicated compounds for 24 hours, and propodium iodide was used to identify different stages of cells by flow cytometry. […] (A) PA and Ph-PA show less toxic to healthy PBMCs compared to Jurkat cells. […] (B) Immunoblot of caspase-3 in Jurkat and PBMCs with indicated conditions. […] (A) Pharmacokinetic studies of mouse intraperitoneal (i.p.) and oral (p.o.) administration for portimine (n=3). […] Impact of PA [0.3 or 1 mg/kg intraperitoneally] on MC38 tumor growth in WT mice (n=6). (C) Kaplan-Myer survival curve of WT MC38 tumor-bearing mice (n=6) after treatment with PA as described in (D). Mice were euthanized when tumor area exceeded 2000 mm^3. Statistical analysis was performed using ANOVA analysis followed by multiple comparisons test, * p≤0.05. Treatment condition: Jurkat (60 M per condition); PA-DA/ePA-DA concentration: 0.5 uM, PA or ePA: 5 uM; Incubate with probe with or without competitors (PA, ePA) for 30 min; UV irradiated for 20 min. (0.5 uM PA-DA add a no-UV condition), Standard pulldown & biotin-enrichment and western blot analysis (Elute condition: 2× sample buffer+500 uM biotin, boil for 20 mins); Primary antibody NMD3 (ProteinTech, 1:150), Actin (BioRad, 1:10000). […] Chemical proteomic profiling with PA-DA in Jurkat cells (A, B, C, G) and HCC1806 cells (D, E, F, H) show NMD3 is the primary target candidate of portimine A. Volcano plot in panels A and D show protein competition in cells treated with active photoaffinity probe PA-DA (500 nM) and DMSO or the active competitor portimine A (PA, […]), dotted lines indicate threshold of fold change <4, p-value>0.05. […] (I, J) Confirmation of PA-DA engagement of NMD3 in Jurkat and HCC1806 cells. […] Treatment condition: Jurkat (5M per well). Portimine A concentration: 2 nM-1000 nM; In total treat cell for 12 hours. […] Protein degradation of p53, Mcl1, Bid, Bim, Noxa can be rescued by MG132 or Epoxomicin. […]

| Compound | cell apoptosis / Caspase 3 activation | cell apoptosis, immunoblot of caspase 3 | caspase-3 cleavage in Jurkat cells |
| --- | --- | --- | --- |
| C=CC1=C[C@@H]2[C@@H]3O[C@]4(CC[C@H](O4)C(C)C[C@@H](O)C3=O)CC(O)C3=NCC[C@@]32CC1 (stereo partly shown) [PA, portimine A] | causes cell apoptosis in dose-dependent manner | induce cell apoptosis | induced caspase-3 cleavage in a dose-dependent manner |
| C#CCCC1(CCNC(=O)c2ccc(C3=C[C@@H]4[C@@H]5O[C@]6(CC[C@H](O6)C(C)C[C@@H](O)C5=O)CC(O)C5=NCC[C@@]54CC3)cc2)N=N1 (stereo partly shown) [PA-DA, portimine A-diazirine-alkyne] | – | induce cell apoptosis | induced caspase-3 cleavage in a dose-dependent manner |
| C#CCCC1(CCNC(=O)c2ccc(C3=C[C@@H]4[C@@H]5O[C@]6(CC[C@H](O6)C(C)C[C@@H](O)C5=O)C[C@@H](O)C5=NCC[C@@]54CC3)cc2)N=N1 (stereo partly drawn) [ePA-DA, epi-portimine A-diazirine-alkyne] | – | do not | – |
| CC1C[C@@H](O)C(=O)[C@H]2O[C@]3(CC[C@@H]1O3)CC(O)C1=NCC[C@@]13CCC(c1ccccc1)=C[C@H]23 (stereo partly shown) [Ph-PA, phenyl-portimine A] | – | induce cell apoptosis | – |
| C=CC1=C[C@@H]2[C@@H]3OC4(CC[C@H](O4)C(C)C[C@@H](O)C3=O)CC(=O)C3=NCC[C@@]32CC1 (stereo partly shown) [PB, portimine B] | – | do not | – |
| C=CC1=C[C@@H]2[C@@H]3O[C@]4(CC[C@H](O4)C(C)C[C@@H](O)C3=O)C[C@@H](O)C3=NCC[C@@]32CC1 (stereo partly drawn) [ePA, epi-portimine A] | does not show significant Caspase 3 activation | do not | – |
